Reference: patent publication US12679843B2, “Pyrrolopyrimidine amines as complement inhibitors” (BioCryst Pharmaceuticals, Inc., priority 2020, dated 2026)

Molecular target: Factor D (Homo sapiens, UniProt P00746)
Assay: Factor D esterolytic assay (Z-Lys-SBzl thioester substrate, DTNB, 405 nm)
Format: biochemical
Conditions: substrate Z-Lys-SBzl 1.29 mM, 100 mM HEPES, 500 mM NaCl, pH 7.5, 10% DMSO, tested a minimum of three times
Outline: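 Human Factor D hydrolysis of Z-Lys-SBzl (1.29 mM) monitored at 405 nm via DTNB thiol detection for 600 s, 690 nm background subtracted. Buffer 100 mM HEPES, 500 mM NaCl, pH 7.5, 10% DMSO; substrate added immediately or after room-temperature preincubation. IC50 from percent inhibition of rate, at least three tests.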

Factor D, sequence (P00746 26-253): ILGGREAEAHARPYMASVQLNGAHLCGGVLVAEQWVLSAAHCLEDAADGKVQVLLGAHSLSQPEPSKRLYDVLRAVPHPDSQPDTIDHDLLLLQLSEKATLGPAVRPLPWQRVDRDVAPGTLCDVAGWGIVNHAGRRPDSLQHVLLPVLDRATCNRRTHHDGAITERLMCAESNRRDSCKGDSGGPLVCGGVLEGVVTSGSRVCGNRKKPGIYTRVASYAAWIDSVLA

| Structure (SMILES) | IC50 [nM] |
| --- | --- |
| COc1ccc2c3c(N)ncnc3n(CC(=O)N3[C@H](C(=O)Nc4nc(Br)ccc4C)C[C@@]4(C)C[C@@H]34)c2c1 [Compound 253a, (1R,3S,5R)-2-(2-(4-amino-7-methoxy-9H-pyrimido[4,5-b]indol-9-yl)acetyl)-N-(6-bromo-3-methylpyridin-2-yl)-5-methyl-2-azabicyclo[3.1.0]hexane-3-carboxamide] | < 100 |
| C[C@@]12C[C@@H](C(=O)Nc3cccc(Br)n3)N(C(=O)Cn3c4ccc(-c5ccco5)cc4c4c(N)ncnc43)[C@@H]1C2 [Compound 336c, (1R,3S,5R)-2-(2-(4-amino-6-(furan-2-yl)-9H-pyrimido[4,5-b]indol-9-yl)acetyl)-N-(6-bromopyridin-2-yl)-5-methyl-2-azabicyclo[3.1.0]hexane-3-carboxamide] | < 100 |
| Nc1ncnc2c1c1cc(C(F)(F)F)ccc1n2CC(=O)N1c2ccccc2C[C@H]1C(=O)Nc1cccc(Br)n1 [Compound 179d, (S)-1-(2-(4-amino-6-(trifluoromethyl)-9H-pyrimido[4,5-b]indol-9-yl)acetyl)-N-(6-bromopyridin-2-yl)indoline-2-carboxamide] | > 1000 |
| Nc1nc(N)c2ccn(CC(=O)N3[C@@H]4C[C@@H]4C[C@H]3C(=O)Nc3cccc(Br)n3)c2n1 [Compound 87f, (1R,3S,5R)—N-(6-bromopyridin-2-yl)-2-(2-(2,4-diamino-7H-pyrrolo[2,3-d]pyrimidin-7-yl)acetyl)-2-azabicyclo[3.1.0]hexane-3-carboxamide] | > 1000 |
| Cc1cc(C(F)(F)F)nc2c3c(N)ncnc3n(CC(=O)N3[C@H](C(=O)Nc4cccc(Br)n4)C[C@@]4(C)C[C@@H]34)c12 [Compound 363a, (1R,3S,5R)-2-(2-(4-amino-8-methyl-6-(trifluoromethyl)-9H-pyrido[2′,3′:4,5]pyrrolo[2,3-d]pyrimidin-9-yl)acetyl)-N-(6-bromopyridin-2-yl)-5-methyl-2-azabicyclo[3.1.0]hexane-3-carboxamide] | < 100 |
| Cc1ccc(Br)nc1NC(=O)[C@@H]1C[C@@](C)(F)CN1C(=O)Cn1c2ncnc(N)c2c2cc(C(F)(F)F)cc(C)c21 [Compound 323a, (2S,4R)-1-(2-(4-amino-8-methyl-6-(trifluoromethyl)-9H-pyrimido[4,5-b]indol-9-yl)acetyl)-N-(6-bromo-3-methylpyridin-2-yl)-4-fluoro-4-methylpyrrolidine-2-carboxamide] | < 100 |
| Nc1c(C=O)cnc2c1ccn2CC(=O)N1[C@@H]2C[C@@H]2C[C@H]1C(=O)Nc1cccc(Br)n1 [Compound 156e, (1R,3S,5R)-2-(2-(4-amino-5-formyl-1H-pyrrolo[2,3-b]pyridin-1-yl)acetyl)-N-(6-bromopyridin-2-yl)-2-azabicyclo[3.1.0]hexane-3-carboxamide] | 100 to 1000 |
| Nc1ncnc2c1ncn2CC(=O)N1[C@@H]2CC[C@@H](C2)[C@H]1C(=O)NCc1cccc(Cl)c1F [Compound 124b, (1R,3S,4S)-2-(2-(6-amino-9H-purin-9-yl)acetyl)-N-(3-chloro-2-fluorobenzyl)-2-azabicyclo[2.2.1]heptane-3-carboxamide] | > 1000 |
| Nc1ncnc2c1c1cccc(-c3ccccc3)c1n2CC(=O)N1[C@@H]2C[C@@H]2C[C@H]1C(=O)Nc1cccc(Br)n1 [Compound 244d, (1R,3S,5R)-2-(2-(4-amino-8-phenyl-9H-pyrimido[4,5-b]indol-9-yl)acetyl)-N-(6-bromopyridin-2-yl)-2-azabicyclo[3.1.0]hexane-3-carboxamide] | < 100 |
| Cc1cc(-c2ccco2)cc2c3c(N)ncnc3n(CC(=O)N3[C@H](C(=O)Nc4cccc(Br)n4)C[C@@]4(C)C[C@@H]34)c12 [Compound 359c, (1R,3S,5R)-2-(2-(4-amino-6-(furan-2-yl)-8-methyl-9H-pyrimido[4,5-b]indol-9-yl)acetyl)-N-(6-bromopyridin-2-yl)-5-methyl-2-azabicyclo[3.1.0]hexane-3-carboxamide] | < 100 |
